Test results: US11505527B1, “Tetrahydroquinoline derivatives and a process of preparation thereof” (King Abdulaziz University, priority 2022, dated 2022)
Read-outs that look alike come from different tables or passages of the source. Each block holds one compound with its values, some of them ahead of it.

Assays:
[1] = system: human breast cancer MCF-7 cell line; assay: MTT cell viability assay against MCF-7 cells; type: cell-based; conditions: vs standard drug staurosporine
Experimental: (§1) For this purpose, cells suspended in the medium (2×10^4 cells/mL) were plated in 96-well culture plates and incubated at 37° C. in a 5% CO2 incubator. After 12 h, the test sample ([…]) was added to the cells (2×10^4) in 96-well plates and cultured at 37° C. for 3 days. The cultured cells were mixed with 20 μL (microlitre) of MTT solution and incubated for 4 h at 37° C. The supernatant was carefully removed from each well and […] of DMSO were added to each well to dissolve the formazan crystals which were formed by the cellular reduction of MTT. After mixing with a mechanical plate mixer, the absorbance of each well was measured by a microplate reader using a test wavelength of 570 nm (nanometers). […] Each experiment was performed at least 3 times.

[2] = system: normal WI38 cells; assay: MTT assay against normal WI38 cells (safety profile); type: cell-based; conditions: for IC50 against WI38 cells, fold higher than IC50 against MCF-7 cancer cells: WI38 vs MCF-7; for IC50 against WI38 cells relative to IC50 of staurosporine: vs reference drug staurosporine
Experimental: as §1
One of the features that differentiates various antiproliferative therapeutic agents from each other is the recurrence and severity of their side effects to the normal cells at their therapeutic doses. Accordingly, the safety profile of the most promising candidates (4b, 4j, 4k, and 4e) was evaluated against the normal WI38 cells derived from lung tissues using MTT assay.

[3] = target: EGFR (Homo sapiens (Human), UniProt P00533); assay: In vitro kinase inhibition assay, EGFR (Abcam Human In cell ELISA Kit); type: biochemical
From the text: (§2) RTK's play essential roles in regulation of cell proliferation, differentiation, survival and apoptosis. Aberrant expression of RTK results in cell growth dysfunction leading to tumor takeover, angiogenesis, and metastasis. They also produce their actions in a synergistic pattern in regulating tumor response to different anticancer RTK inhibitor drug therapies. […] The procedure of the used kits was done according to the manufacturer's instructions.

[4] = target: HER-2 (Homo sapiens (Human), UniProt P04626); assay: In vitro kinase inhibition assay, HER2 (ADP-Glo Kinase Assay); type: biochemical
From the text: as §2

[5] = target: PDGFR-β (Homo sapiens (Human), UniProt P09619); assay: In vitro kinase inhibition assay, PDGFR-β; type: biochemical
From the text: as §2

[6] = target: VEGFR-2 (Homo sapiens (Human), UniProt P35968); assay: In vitro kinase inhibition assay, VEGFR2 (KDR) Kinase Assay Kit; type: biochemical; conditions: for VEGFR-2 inhibitory effect, fold less than Sorafenib: vs Sorafenib
From the text: as §2

[7] = system: MCF-7 cancer cells; assay: Annexin-V/PI apoptosis assay, flow cytometry; type: cell-based, human; conditions: MCF-7, compound at IC50 concentration, 24 h; control 0.66%
From the text: Flow cytometry method has been used to detect the corresponding red (PI) and green (FITC) fluorescence.
The induction of apoptosis is one of the most crucial tools that confirm the effectiveness of cancer therapy. Cell cycle checkpoints are G1 (restriction or start), S ([…]), and G2/M. One of the main functions of the anticancer therapeutics is stoppage of the cell division at these checkpoints. […] The cells were stained with Annexin V/PI and examined using flow cytometry procedure. For cell cycle analysis, cell pellets were fixed with 70% ethanol on ice for 15 min. and collected again. The collected pellets were incubated with propidium iodide (PI) staining solution ([…] PI, 0.1 mg/mL RNaseA, 0.05% Triton X-100) at room temperature for 1 hand analyzed by Gallios flow cytometer (Beckman Coulter, Brea, CA, USA). Apoptosis detection was performed by FITC Annexin V/PI commercial kit (Becton Dickenson, Franklin Lakes, N.J., USA) following the manufacture protocol. The samples were analyzed by fluorescence-activated cell sorting (FACS) with a Gallios flow cytometer (Beckman Coulter, Brea, Calif., USA) within 1 h after staining Data were analyzed using Kaluzav 1.2 (Beckman Coulter).

[8] = unit mM, read-out: EGFR IC50 (converted)

Chain of EGFR (P00533 25-1210): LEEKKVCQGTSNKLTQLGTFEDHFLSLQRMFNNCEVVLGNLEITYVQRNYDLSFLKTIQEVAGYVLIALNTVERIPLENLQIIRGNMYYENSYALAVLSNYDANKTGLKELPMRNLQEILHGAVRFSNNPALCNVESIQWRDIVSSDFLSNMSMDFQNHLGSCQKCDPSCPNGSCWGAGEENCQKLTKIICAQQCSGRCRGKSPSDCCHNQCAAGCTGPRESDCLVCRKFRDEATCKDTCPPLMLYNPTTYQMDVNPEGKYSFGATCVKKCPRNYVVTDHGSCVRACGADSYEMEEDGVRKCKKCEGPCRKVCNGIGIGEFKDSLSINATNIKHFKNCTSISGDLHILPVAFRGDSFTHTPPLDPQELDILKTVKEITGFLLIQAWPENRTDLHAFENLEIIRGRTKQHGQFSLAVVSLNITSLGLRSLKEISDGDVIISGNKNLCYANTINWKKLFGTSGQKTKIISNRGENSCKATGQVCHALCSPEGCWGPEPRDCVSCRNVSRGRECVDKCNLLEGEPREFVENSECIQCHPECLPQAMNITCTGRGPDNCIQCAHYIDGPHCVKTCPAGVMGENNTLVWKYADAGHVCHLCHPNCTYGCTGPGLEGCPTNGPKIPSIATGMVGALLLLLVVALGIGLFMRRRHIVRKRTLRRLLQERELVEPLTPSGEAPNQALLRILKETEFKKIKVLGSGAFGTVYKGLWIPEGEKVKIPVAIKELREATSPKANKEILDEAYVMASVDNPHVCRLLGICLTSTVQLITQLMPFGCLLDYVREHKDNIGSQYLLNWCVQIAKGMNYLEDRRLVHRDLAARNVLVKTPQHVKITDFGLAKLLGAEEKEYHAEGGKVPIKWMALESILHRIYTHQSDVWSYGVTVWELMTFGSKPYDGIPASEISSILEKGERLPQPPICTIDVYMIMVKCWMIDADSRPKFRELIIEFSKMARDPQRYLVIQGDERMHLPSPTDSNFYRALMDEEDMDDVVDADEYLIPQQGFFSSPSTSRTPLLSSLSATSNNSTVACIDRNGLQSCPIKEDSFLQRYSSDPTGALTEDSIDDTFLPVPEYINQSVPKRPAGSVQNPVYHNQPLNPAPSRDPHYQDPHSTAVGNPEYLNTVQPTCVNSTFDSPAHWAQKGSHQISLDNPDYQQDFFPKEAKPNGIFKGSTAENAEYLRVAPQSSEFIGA
Chain of PDGFR-β (P09619 33-1106, species assumed): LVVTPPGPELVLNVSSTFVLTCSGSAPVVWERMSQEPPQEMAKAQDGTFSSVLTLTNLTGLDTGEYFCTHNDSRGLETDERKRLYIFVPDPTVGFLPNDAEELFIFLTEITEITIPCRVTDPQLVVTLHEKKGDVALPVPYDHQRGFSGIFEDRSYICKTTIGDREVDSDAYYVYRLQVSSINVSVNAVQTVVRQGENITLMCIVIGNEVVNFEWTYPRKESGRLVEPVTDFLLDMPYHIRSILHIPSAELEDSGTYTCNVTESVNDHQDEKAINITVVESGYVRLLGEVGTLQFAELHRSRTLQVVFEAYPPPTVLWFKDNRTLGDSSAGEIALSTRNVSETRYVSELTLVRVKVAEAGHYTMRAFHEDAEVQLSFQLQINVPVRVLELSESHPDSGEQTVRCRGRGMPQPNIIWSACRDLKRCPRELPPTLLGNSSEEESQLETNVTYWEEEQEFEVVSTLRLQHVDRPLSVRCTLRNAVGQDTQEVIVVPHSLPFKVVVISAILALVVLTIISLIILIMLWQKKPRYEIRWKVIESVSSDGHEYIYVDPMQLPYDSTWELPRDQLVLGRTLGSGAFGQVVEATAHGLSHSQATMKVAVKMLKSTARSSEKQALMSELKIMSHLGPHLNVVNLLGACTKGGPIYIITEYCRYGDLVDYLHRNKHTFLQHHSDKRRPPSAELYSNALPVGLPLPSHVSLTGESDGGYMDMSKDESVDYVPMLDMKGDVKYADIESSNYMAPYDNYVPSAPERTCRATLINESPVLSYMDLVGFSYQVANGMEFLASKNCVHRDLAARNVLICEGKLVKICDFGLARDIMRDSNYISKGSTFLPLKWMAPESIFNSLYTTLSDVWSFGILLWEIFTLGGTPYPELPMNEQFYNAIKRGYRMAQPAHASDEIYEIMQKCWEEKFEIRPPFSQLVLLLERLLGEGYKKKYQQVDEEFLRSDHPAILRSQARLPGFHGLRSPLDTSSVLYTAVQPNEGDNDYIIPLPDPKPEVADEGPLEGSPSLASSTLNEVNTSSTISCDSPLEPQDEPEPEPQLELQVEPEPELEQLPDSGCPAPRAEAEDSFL
Chain of VEGFR-2 (P35968 20-1356): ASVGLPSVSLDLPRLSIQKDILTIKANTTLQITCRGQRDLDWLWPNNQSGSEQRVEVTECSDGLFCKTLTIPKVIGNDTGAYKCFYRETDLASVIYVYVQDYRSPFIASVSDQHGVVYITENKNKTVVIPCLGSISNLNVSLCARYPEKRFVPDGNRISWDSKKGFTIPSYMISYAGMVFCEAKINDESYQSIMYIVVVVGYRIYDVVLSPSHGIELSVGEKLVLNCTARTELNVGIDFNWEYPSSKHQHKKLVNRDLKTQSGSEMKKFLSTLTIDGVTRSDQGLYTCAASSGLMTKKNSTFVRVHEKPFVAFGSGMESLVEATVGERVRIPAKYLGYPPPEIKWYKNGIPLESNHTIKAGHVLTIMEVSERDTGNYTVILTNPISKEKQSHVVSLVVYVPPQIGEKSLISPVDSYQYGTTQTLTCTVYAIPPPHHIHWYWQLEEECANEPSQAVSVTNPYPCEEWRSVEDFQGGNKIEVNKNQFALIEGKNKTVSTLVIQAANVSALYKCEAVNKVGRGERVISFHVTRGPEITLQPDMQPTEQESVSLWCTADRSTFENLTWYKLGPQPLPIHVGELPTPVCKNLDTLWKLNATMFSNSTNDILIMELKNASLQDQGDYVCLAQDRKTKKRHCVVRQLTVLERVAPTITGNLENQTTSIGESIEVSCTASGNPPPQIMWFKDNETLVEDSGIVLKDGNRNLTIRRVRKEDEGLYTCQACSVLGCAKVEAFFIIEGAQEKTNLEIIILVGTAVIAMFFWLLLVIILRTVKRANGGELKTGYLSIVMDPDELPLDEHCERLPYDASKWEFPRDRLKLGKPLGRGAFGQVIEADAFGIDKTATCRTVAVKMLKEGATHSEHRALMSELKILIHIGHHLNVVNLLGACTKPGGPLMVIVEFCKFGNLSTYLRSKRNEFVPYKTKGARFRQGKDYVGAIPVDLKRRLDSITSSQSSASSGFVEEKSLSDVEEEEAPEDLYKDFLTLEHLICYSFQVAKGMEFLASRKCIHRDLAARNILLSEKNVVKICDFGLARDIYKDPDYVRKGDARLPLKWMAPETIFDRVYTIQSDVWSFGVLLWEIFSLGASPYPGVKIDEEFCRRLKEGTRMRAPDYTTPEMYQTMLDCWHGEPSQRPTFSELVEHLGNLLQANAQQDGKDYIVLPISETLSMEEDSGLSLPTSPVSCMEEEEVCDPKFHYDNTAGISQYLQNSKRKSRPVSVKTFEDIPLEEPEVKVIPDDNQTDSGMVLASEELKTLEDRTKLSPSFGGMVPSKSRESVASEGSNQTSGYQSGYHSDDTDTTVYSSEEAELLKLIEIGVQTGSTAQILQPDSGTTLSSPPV
Chain of HER-2 (P04626 23-1255): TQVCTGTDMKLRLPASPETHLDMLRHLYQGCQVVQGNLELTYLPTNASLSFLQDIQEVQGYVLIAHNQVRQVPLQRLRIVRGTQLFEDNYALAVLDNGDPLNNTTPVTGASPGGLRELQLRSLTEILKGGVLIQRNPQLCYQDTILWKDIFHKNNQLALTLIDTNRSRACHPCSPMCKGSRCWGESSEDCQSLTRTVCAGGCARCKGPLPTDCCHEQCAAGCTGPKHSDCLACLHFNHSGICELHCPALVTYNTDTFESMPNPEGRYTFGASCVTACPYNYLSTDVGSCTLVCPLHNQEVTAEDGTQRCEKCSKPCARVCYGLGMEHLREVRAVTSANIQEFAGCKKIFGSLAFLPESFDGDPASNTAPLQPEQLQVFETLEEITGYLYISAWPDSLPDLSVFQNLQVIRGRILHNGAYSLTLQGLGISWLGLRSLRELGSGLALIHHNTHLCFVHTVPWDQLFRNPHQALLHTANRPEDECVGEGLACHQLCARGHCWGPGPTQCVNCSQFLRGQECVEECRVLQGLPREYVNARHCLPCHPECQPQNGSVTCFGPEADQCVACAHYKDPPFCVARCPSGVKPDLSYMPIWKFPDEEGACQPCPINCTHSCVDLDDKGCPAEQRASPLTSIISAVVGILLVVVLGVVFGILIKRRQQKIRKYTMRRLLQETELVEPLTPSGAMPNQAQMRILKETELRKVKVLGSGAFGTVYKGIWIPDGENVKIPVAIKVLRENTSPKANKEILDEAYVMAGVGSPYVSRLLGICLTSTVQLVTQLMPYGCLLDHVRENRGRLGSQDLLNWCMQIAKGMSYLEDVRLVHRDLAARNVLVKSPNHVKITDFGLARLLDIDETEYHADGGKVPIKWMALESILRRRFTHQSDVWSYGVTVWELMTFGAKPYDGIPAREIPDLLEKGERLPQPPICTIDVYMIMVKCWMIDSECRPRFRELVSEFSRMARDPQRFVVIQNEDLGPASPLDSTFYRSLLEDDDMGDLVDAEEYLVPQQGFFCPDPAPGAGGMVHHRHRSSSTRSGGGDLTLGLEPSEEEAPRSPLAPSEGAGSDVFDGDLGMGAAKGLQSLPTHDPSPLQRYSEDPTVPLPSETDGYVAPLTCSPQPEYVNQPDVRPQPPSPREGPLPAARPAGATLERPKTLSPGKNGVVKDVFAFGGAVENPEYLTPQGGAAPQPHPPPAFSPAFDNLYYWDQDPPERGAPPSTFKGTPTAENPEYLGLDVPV

- IC50 [3, 8]: 110 nM
- IC50 ([4]; Table 4, read-out: HER-2 IC50 (converted)): 0.562 nM
- IC50 ([5]; Table 4): 0.394 nM
- IC50 ([6]; Table 4): 1.97 nM
- VEGFR-2 inhibitory effect, fold less than Sorafenib [6]: about 6.2 fold
Compound: CCOC(=O)C1=C(C(F)(F)F)NC2=C(C(=O)CC(C)(C)C2)C1c1ccc(S(=O)(=O)c2ccccc2)cc1 (stereo not shown) [Compound 4b, ethyl 7,7-dimethyl-5-oxo-4-(4-(phenylsulfonyl)phenyl)-2-(trifluoromethyl)-1,4,5,6,7,8-hexahydroquinoline-3-carboxylate]
- fold more potent activity than staurosporine (MCF-7) [1]: about 2.5 fold
- IC50 against WI38 cells, fold higher than IC50 against MCF-7 cancer cells [2]: 24 fold
- IC50 against WI38 cells relative to IC50 of staurosporine [2]: about 3 fold

Compound: CC1(C)CC(=O)C2=C(C1)NC(N)=C(C(=O)c1ccccc1)C2c1ccc(S(=O)(=O)c2ccccc2)cc1 (stereo not shown) [Compound 4d, 2-amino-3-benzoyl-7,7-dimethyl-4-(4-(phenylsulfonyl)phenyl)-4,6,7,8-tetrahydroquinolin-5(1H)-one]
- fold less potent than the standard drug staurosporine (MCF-7) [1]: 1.4 fold

Compound: Cc1ccc(C(=O)C2=C(N)NC3=C(C(=O)CC(C)(C)C3)C2c2ccc(S(=O)(=O)c3ccccc3)cc2)cc1 (stereo not shown) [Compound 4e, 2-amino-7,7-dimethyl-3-(4-methylbenzoyl)-4-(4-(phenylsulfonyl)phenyl)-4,6,7,8-tetrahydroquinolin-5(1H)-one]
- fold more potent activity than staurosporine (MCF-7) [1]: 1-1.6 fold
- IC50 against WI38 cells, fold higher than IC50 against MCF-7 cancer cells [2]: 4 fold
- IC50 against WI38 cells relative to IC50 of staurosporine [2]: approximately equal

- IC50 ([3]; EGFR IC50, Table 4, heading: EGFR IC50): 70 ± 20 nM
- IC50 ([3]; differs from Table 4, read-out: EGFR IC50 (converted)): 77.4 nM
- IC50 [3, 8]: 70 nM
- IC50 ([4]; Table 4, heading: HER-2 IC50, read-out: HER-2 IC50 (converted)): 170 ± 20 nM
- IC50 ([4]; differs from Table 4, read-out: HER-2 IC50 (converted)): 171 nM
- IC50 ([4]; unit mM, read-out: HER-2 IC50 as restated in text): 170 nM
- PDGFR-β inhibition, fold more than reference sorafenib [5]: 0.7 fold
- IC50 ([5]; Table 4): 0.133 nM
- IC50 ([5]; differs from Table 4): 81.6 nM
- PDGFR-a inhibition, fold more than reference sorafenib ([5]; text b141 prints PDGFR-a): 1.9 fold
- IC50 ([6]; Table 4): 0.57 nM
- IC50 ([6]; differs from Table 4): 304 nM
- VEGFR-2 inhibitory effect, fold less than Sorafenib [6]: ~1.8 fold
Compound: Cc1ccc(S(=O)(=O)c2ccc(C3C(C(=O)c4ccccc4)=C(N)NC4=C3C(=O)CC(C)(C)C4)cc2)cc1 (stereo not shown) [Compound 4j, 2-amino-3-benzoyl-7,7-dimethyl-4-(4-tosylphenyl)-4,6,7,8-tetrahydroquinolin-5(1H)-one]
- fold more potent activity than staurosporine (MCF-7) [1]: 1-1.6 fold
- IC50 against WI38 cells, fold higher than IC50 against MCF-7 cancer cells [2]: 20 fold
- IC50 against WI38 cells relative to IC50 of staurosporine [2]: about 3 fold
- necrosis percent [7]: 4.2%

Compound: Cc1ccc(C(=O)C2=C(N)NC3=C(C(=O)CC(C)(C)C3)C2c2ccc(S(=O)(=O)c3ccc(C)cc3)cc2)cc1 (stereo not shown) [Compound 4k, 2-amino-7,7-dimethyl-3-(4-methylbenzoyl)-4-(4-tosylphenyl)-4,6,7,8-tetrahydroquinolin-5(1H)-one]
- fold more potent activity than staurosporine (MCF-7) [1]: 1-1.6 fold
- IC50 against WI38 cells, fold higher than IC50 against MCF-7 cancer cells [2]: 4 fold
- IC50 against WI38 cells relative to IC50 of staurosporine [2]: approximately equal

Compound: Cc1ccc(S(=O)(=O)c2ccc(C3C(C(=O)c4ccc(Br)cc4)=C(N)NC4=C3C(=O)CC(C)(C)C4)cc2)cc1 (stereo not shown) [Compound 4l, 2-amino-3-(4-bromobenzoyl)-7,7-dimethyl-4-(4-tosylphenyl)-4,6,7,8-tetrahydroquinolin-5(1H)-one]
- fold less potent than the standard drug staurosporine (MCF-7) [1]: 1.4 fold

Compound: CN[C@@H]1C[C@H]2O[C@@](C)([C@@H]1OC)n1c3ccccc3c3c4c(c5c6ccccc6n2c5c31)C(=O)NC4 [Staurosporine, reference compound]
- IC50 ([2]; MTT, normal lung-derived cells): 13 ± 2 nM
